Results reported in patent US12408664B2 (priority 2018, dated 2025).
“Also recorded” adds a separate entry of the source. Read-outs that look alike come from different tables or passages of the source.

Key:
M. poae [1] = type: cell-based, Magnaporthe poae
R. solani = test: Zone of inhibition assay on PDA plates; type: cell-based, Rhizoctonia solani
Protocol: To test the efficacy of calcium propionate (CaP) against the four microbes listed above, zone of inhibition assays were performed. Wells were bored in potato dextrose agarose (PDA) plates then amended with […] calcium propionate at concentrations of 0.1%, 0.2%, 0.3%, 0.4%, and 0.5% (w/v). Control plates were amended with […] dH2O. Plates were inoculated using plugs from active cultures. Growth patterns were observed over seven days. Representative results with M. poae are shown at three days following inoculation (FIG. 1A) and seven days following inoculation (FIG. 1B).
The zone of inhibition assays described in Example 1 were performed using calcium propionate doses of 0.5%, 1%, 2%, 3%, and 4% (w/v). Growth diameter was recorded at 2, 5, and 7 days post inoculation. The data shown in Table 1 represent the average±standard deviation (SD) of two replicate plates for each strain tested.
Zone of inhibition assays using PDA plates amended with 5-12% (w/v) calcium propionate were performed as described above. As a control, plates were amended with a composition comprising propiconazole, a commonly used fungicidal treatment for microbe infection of turfgrass, sold under the trademark Banner MaxxII®. Growth diameter was recorded for 13 days post inoculation. The data shown in Table 2 represent the average±standard deviation (SD) of three replicate plates for each strain tested. Inoculants of S. homoeocarpa, M. poae, and R. solani generally grow to luxuriant culture, covering the entire surface of the plate (8.5 cm growth) in 7 days.

S. homoeocarpa [2] = test: Growth on PDA with calcium propionate fully integrated into the agarose; type: cell-based, Scerotinia homoeocarpa; conditions: for Growth, S. homeocarpa: single plate
Protocol: In contrast to the zone of inhibition assays described in Examples 1-3, for this experiment, PDA with calcium propionate fully integrated into the agarose was prepared. Thus, inoculants were grown on plates in which calcium propionate was incorporated at a uniform concentration throughout the plate, rather than the zones of concentration established by simple diffusion in the zone of inhibition assays. The PDA plates were amended with 5, 7.5, 10, or 12% (w/v) calcium propionate. Growth diameter was recorded for 15 days post inoculation. The data shown in Table 3 represent the results of single plate tests.

M. poae [3] = type: cell-based, Magnaporthe poae; remark: listed apart in the source
M. poae [4] = type: cell-based, Magnaporthe poae; remark: listed apart in the source
G. graminis [5] = test: Plug transfer to PDA plates without calcium propionate (fungistatic or fungicidal); type: cell-based, Gaeumannomyces graminis
S. homoeocarpa [6] = test: Established liquid cultures, two days calcium propionate then washout; type: cell-based, Scerotinia homoeocarpa
Protocol: (§1) To further examine the impact of calcium propionate on established liquid cultures, MEB was inoculated by plug transfer and cultures were allowed to grow for one to six days. Following this, calcium propionate was added to active cultures to a final concentration of 1%, 2%, or 5% (w/v); control cultures had no calcium propionate. Calcium propionate was then added to established one to six day old cultures and cultures were allowed to grow in the presence of calcium propionate for two days, after which, calcium propionate was washed out and cultures were returned to MEB only. Growth following calcium propionate washout was recorded over 14 days.

G. graminis [7] = test: as above; type: cell-based, Gaeumannomyces graminis
Protocol: as §1

dollar spot = test: Golf Course 2: infected live turfgrass, visual detection of dollar spot; type: in vivo, Scerotinia homoeocarpa; conditions: 3-4 grams per square meter every 10 days, 5% (w/v) solution sprayed; 10 days following initial application
Protocol: (§2) Calcium propionate was dissolved in water to form a 5% (w/v) solution. […] The turfgrass was comprised primarily of Agrostis capillaris. The calcium propionate 5% (w/v) solution was sprayed onto the turfgrass at a concentration of 3-4 grams per square meter every 10 days.

turfgrass = test: Golf Course 2: appearance of treated turfgrass; type: in vivo, Agrostis capillaris; conditions: 3-4 grams per square meter every 10 days; 10 days following initial application
Protocol: as §2

[8] = 5-12% (w/v) calcium propionate, day 2, average ± SD of three plates
[9] = 5-12% (w/v) calcium propionate, day 3, average ± SD of three plates
[10] = 5-12% (w/v) calcium propionate, day 6, average ± SD of three plates
[11] = 5-12% (w/v) calcium propionate, day 7, average ± SD of three plates
[12] = 5-12% (w/v) calcium propionate, day 10, average ± SD of three plates
[13] = 5-12% (w/v) calcium propionate, day 13, average ± SD of three plates
[14] = wells 0.1-0.5% (w/v) calcium propionate, observed over seven days
[15] = wells 0.5-4% (w/v) calcium propionate, day 2, average ± SD of two plates
[16] = wells 0.5-4% (w/v) calcium propionate, day 5, average ± SD of two plates
[17] = wells 0.5-4% (w/v) calcium propionate, day 7, average ± SD of two plates
[18] = any of the concentrations tested (5, 7.5, 10, 12% w/v), 15 days
[19] = plugs initially grown on 5, 7.5, 10 or 12% (w/v) calcium propionate, observed 14 days
[20] = 1%, 2% or 5% (w/v), established one to six day old cultures, two days

SMILES: CCC(=O)[O-].CCC(=O)[O-].[Ca+2] [calcium propionate]
- growth inhibition in repeated experiments, M. poae (M. poae [1]; 2-4% (w/v) calcium propionate, repeat, data not shown): mixed
- Growth, M. Poae (M. poae [1]; [8]): 1.1 ± 0.1 cm
- Growth, M. Poae (M. poae [1]; [9]): 1.5 ± 0.2 cm
- Growth, M. Poae (M. poae [1]; [10]): 2.1 ± 0.4 cm
- Growth, M. Poae (M. poae [1]; [11]): 3.1±0.4 cm
- Growth, M. Poae (M. poae [1]; [12]): 5.8 ± 0.7 cm
- Growth, M. Poae (M. poae [1]; [13]): 8.2 ± 0.5 cm
- growth inhibition, M. poae (M. poae [1]; [14]): no growth inhibition was observed
- Growth, M. Poae (M. poae [1]; [15]): 1.5 ± 0.2 cm
- Growth, M. Poae (M. poae [1]; [16]): 4.3 ± 0.1 cm
- Growth, M. Poae (M. poae [1]; [17]): 6.9 ± 0.1 cm
- growth inhibition, M. poae (M. poae [1]; wells 0.5-4% (w/v) calcium propionate, seven day growth period): clear growth inhibition; also recorded: inhibited to a similar degree
- Growth, R. solani (R. solani; [8]): 2.6 ± 0.3 cm
- Growth, R. solani (R. solani; [9]): 4.3 ± 0.3 cm
- Growth, R. solani (R. solani; [10]): 8.5 ± 0 cm
- Growth, R. solani (R. solani; [11]): 8.5 ± 0 cm
- Growth, R. solani (R. solani; [12]): 8.5 ± 0 cm
- Growth, R. solani (R. solani; [13]): 8.5 ± 0 cm
- inhibition of R. solani growth (R. solani; calcium propionate concentrations up to 12% (w/v)): no inhibition
- growth inhibition, R. solani (R. solani; [14]): no growth inhibition was observed
- growth inhibition, R. solani (R. solani; wells 0.5-4% (w/v) calcium propionate): uninhibited
- Growth, R. solani (R. solani; [15]): 3.3 ± 0.4 cm
- Growth, R. solani (R. solani; [16]): 8.5 ± 0 cm
- Growth, R. solani (R. solani; [17]): 8.5 ± 0 cm
- Growth, S. homeocarpa (S. homoeocarpa [2]; PDA with 5% (w/v) calcium propionate, day 4): 0 cm
- Growth, S. homeocarpa (S. homoeocarpa [2]; PDA with 5% (w/v) calcium propionate, day 5): 0 cm
- Growth, S. homeocarpa (S. homoeocarpa [2]; PDA with 5% (w/v) calcium propionate, day 8): 0 cm
- Growth, S. homeocarpa (S. homoeocarpa [2]; PDA with 5% (w/v) calcium propionate, day 11): 0 cm
- Growth, S. homeocarpa (S. homoeocarpa [2]; PDA with 5% (w/v) calcium propionate, day 15): 0 cm
- Growth, S. homeocarpa (S. homoeocarpa [2]; PDA with 7.5% (w/v) calcium propionate, day 4): 0 cm
- Growth, S. homeocarpa (S. homoeocarpa [2]; PDA with 7.5% (w/v) calcium propionate, day 5): 0 cm
- Growth, S. homeocarpa (S. homoeocarpa [2]; PDA with 7.5% (w/v) calcium propionate, day 8): 0 cm
- Growth, S. homeocarpa (S. homoeocarpa [2]; PDA with 7.5% (w/v) calcium propionate, day 11): 0 cm
- Growth, S. homeocarpa (S. homoeocarpa [2]; PDA with 7.5% (w/v) calcium propionate, day 15): 0 cm
- Growth, S. homeocarpa (S. homoeocarpa [2]; PDA with 10% (w/v) calcium propionate, day 4): 0 cm
- Growth, S. homeocarpa (S. homoeocarpa [2]; PDA with 10% (w/v) calcium propionate, day 5): 0 cm
- Growth, S. homeocarpa (S. homoeocarpa [2]; PDA with 10% (w/v) calcium propionate, day 8): 0 cm
- Growth, S. homeocarpa (S. homoeocarpa [2]; PDA with 10% (w/v) calcium propionate, day 11): 0 cm
- Growth, S. homeocarpa (S. homoeocarpa [2]; PDA with 10% (w/v) calcium propionate, day 15): 0 cm
- Growth, S. homeocarpa (S. homoeocarpa [2]; PDA with 12% (w/v) calcium propionate, day 4): 0 cm
- Growth, S. homeocarpa (S. homoeocarpa [2]; PDA with 12% (w/v) calcium propionate, day 5): 0 cm
- Growth, S. homeocarpa (S. homoeocarpa [2]; PDA with 12% (w/v) calcium propionate, day 8): 0 cm
- Growth, S. homeocarpa (S. homoeocarpa [2]; PDA with 12% (w/v) calcium propionate, day 11): 0 cm
- Growth, S. homeocarpa (S. homoeocarpa [2]; PDA with 12% (w/v) calcium propionate, day 15): 0 cm
- growth, S. homoeocarpa (S. homoeocarpa [2]; [18]): no growth
- Growth, M. Poae (M. poae [3]; PDA with 5% (w/v) calcium propionate, day 4, single plate): 0 cm
- Growth, M. Poae (M. poae [3]; PDA with 5% (w/v) calcium propionate, day 5, single plate): 0 cm
- Growth, M. Poae (M. poae [3]; PDA with 5% (w/v) calcium propionate, day 8, single plate): 0 cm
- Growth, M. Poae (M. poae [3]; PDA with 5% (w/v) calcium propionate, day 11, single plate): 0 cm
- Growth, M. Poae (M. poae [3]; PDA with 5% (w/v) calcium propionate, day 15, single plate): 0 cm
- Growth, M. Poae (M. poae [3]; PDA with 7.5% (w/v) calcium propionate, day 4, single plate): 0 cm
- Growth, M. Poae (M. poae [3]; PDA with 7.5% (w/v) calcium propionate, day 5, single plate): 0 cm
- Growth, M. Poae (M. poae [3]; PDA with 7.5% (w/v) calcium propionate, day 8, single plate): 0 cm
- Growth, M. Poae (M. poae [3]; PDA with 7.5% (w/v) calcium propionate, day 11, single plate): 0 cm
- Growth, M. Poae (M. poae [3]; PDA with 7.5% (w/v) calcium propionate, day 15, single plate): 0 cm
- Growth, M. Poae (M. poae [3]; PDA with 10% (w/v) calcium propionate, day 4, single plate): 0 cm
- Growth, M. Poae (M. poae [3]; PDA with 10% (w/v) calcium propionate, day 5, single plate): 0 cm
- Growth, M. Poae (M. poae [3]; PDA with 10% (w/v) calcium propionate, day 8, single plate): 0 cm
- Growth, M. Poae (M. poae [3]; PDA with 10% (w/v) calcium propionate, day 11, single plate): 0 cm
- Growth, M. Poae (M. poae [3]; PDA with 10% (w/v) calcium propionate, day 15, single plate): 0 cm
- Growth, M. Poae (M. poae [3]; PDA with 12% (w/v) calcium propionate, day 4, single plate): 0 cm
- Growth, M. Poae (M. poae [3]; PDA with 12% (w/v) calcium propionate, day 5, single plate): 0 cm
- Growth, M. Poae (M. poae [3]; PDA with 12% (w/v) calcium propionate, day 8, single plate): 0 cm
- Growth, M. Poae (M. poae [3]; PDA with 12% (w/v) calcium propionate, day 11, single plate): 0 cm
- Growth, M. Poae (M. poae [3]; PDA with 12% (w/v) calcium propionate, day 15, single plate): 0 cm
- Growth, M. Poae (M. poae [3]; [18]): no growth
- fungistatic or fungicidal effect, M. poae (M. poae [4]; 5% (w/v) calcium propionate): fungicidal effect
- growth on unamended PDA after plug transfer, M. poae (M. poae [4]; [19]): No growth was seen
- fungistatic or fungicidal effect, G. graminis (G. graminis [5]; 5% (w/v) calcium propionate): fungicidal effect
- growth on unamended PDA after plug transfer, G. graminis (G. graminis [5]; [19]): No growth was seen
- growth recovery over 14 days after removal, S. homoeocarpa (S. homoeocarpa [6]; 1% or 2% (w/v) calcium propionate): varying degrees of growth recovery
- growth while calcium propionate was present, S. homoeocarpa (S. homoeocarpa [6]; [20]): growth was inhibited
- growth recovery over 14 days after removal, S. homoeocarpa (S. homoeocarpa [6]; 5% (w/v) treatment): no growth recovery was observed
- growth three days following removal of calcium propionate, S. homoeocarpa (S. homoeocarpa [6]; all concentrations tested (1-5% w/v)): continued growth inhibition
- growth while calcium propionate was present, G. graminis (G. graminis [7]; [20]): growth was inhibited
- growth three days following removal of calcium propionate, G. graminis (G. graminis [7]; all concentrations tested (1-5% w/v), data not shown): continued growth inhibition
- growth up to two weeks following calcium propionate removal, G. graminis (G. graminis [7]; concentrations as low as 1% (w/v)): no growth was observed
- visual detection of dollar spot infection (dollar spot): could no longer be visually detected
- appearance of the turfgrass (turfgrass): appeared healthy
